Measured values as given in publication PMC10373739, “The AKT inhibitor, MK-2206, attenuates ABCG2-mediated drug resistance in lung and colon cancer cells” (Frontiers in Pharmacology, 2023).

Target: T1, ABCG2 transporter (Homo sapiens, UniProt Q9UNQ0)
T1 sequence (Q9UNQ0 1-655): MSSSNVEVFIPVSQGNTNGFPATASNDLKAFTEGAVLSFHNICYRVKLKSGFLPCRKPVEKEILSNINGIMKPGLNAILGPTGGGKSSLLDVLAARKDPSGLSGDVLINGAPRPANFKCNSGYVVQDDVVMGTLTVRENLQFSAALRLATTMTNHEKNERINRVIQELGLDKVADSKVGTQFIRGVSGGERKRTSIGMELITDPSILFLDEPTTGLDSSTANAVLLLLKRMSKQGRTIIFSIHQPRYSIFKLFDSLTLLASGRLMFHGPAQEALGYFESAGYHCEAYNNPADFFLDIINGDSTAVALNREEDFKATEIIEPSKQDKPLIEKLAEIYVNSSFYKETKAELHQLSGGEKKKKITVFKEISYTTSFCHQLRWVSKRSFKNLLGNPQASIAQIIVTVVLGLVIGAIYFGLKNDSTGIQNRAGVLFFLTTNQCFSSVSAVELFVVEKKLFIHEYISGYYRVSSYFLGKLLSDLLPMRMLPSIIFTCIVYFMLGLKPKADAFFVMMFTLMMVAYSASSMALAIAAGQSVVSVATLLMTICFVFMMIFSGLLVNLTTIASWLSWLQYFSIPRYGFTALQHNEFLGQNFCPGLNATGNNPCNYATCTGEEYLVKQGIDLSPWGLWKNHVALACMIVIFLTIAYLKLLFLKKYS
Experiment: vanadate-sensitive ATPase assay (stimulation of basal activity) in ABCG2 membrane vesicles from High Five insect cells
Type: biochemical

EC50: 460 nM
SMILES: NC1(c2ccc(-c3nc4ccn5c(=O)[nH]nc5c4cc3-c3ccccc3)cc2)CCC1 [MK-2206]
